Values after ≈ are worked out from the molar mass of the structure shown. Like-named read-outs stand apart in the source and are kept apart here.
What was measured:
[1] = Stability of AMG 397 in THF and DCM solution at 1 mg/mL, room temperature, amber and clear vials (peak area % at 280 nm); type: physicochemical; conditions: for Peak Area % (280 nm), AMG 397 peak RRT 1.00: 1 mg/mL, room temperature
Experimental: The stability of AMG 397 was assessed in both THF and DCM over 24 hours to cover the processing time in the solvent. The stability was assessed in both amber and clear glass vials to assess the impact of light on stability.
Light had little impact on degradation up to 72 hours in DCM.

[2] = Solubility of AMG 397 in common spray-drying solvents; type: physicochemical
Experimental: Solvent selection: The solubility of AMG 397 was measured in solvents commonly used for spray drying. […] Based on the solubility data, tetrahydrofuran (THF) was selected as a solvent for the initial spray drying-work and further work was conducted in DCM.
AMG 397 is known to form solvates with many solvents. The formation of a solvate can lead to precipitation from solution due to the lower solubility in the solvent. Care must be taken to select a solvent and concentration of AMG 397 which can be maintained for the duration of the spray-drying process. The solubility of AMG 397 was highest in DCM where concentrations >100 mg/mL were achieved. Both DCM and THF are ICH class II solvents with residual solvent limits of 600 and 720 ppm, respectively. Therefore, the residual solvent levels must be removed to below these levels during the secondary drying process.

CO[C@]1(CN2CCN3CCCC[C@@H]3C2)/C=C/C[C@H](C)[C@@H](C)S(=O)(=O)NC(=O)c2ccc3c(c2)N(C[C@@H]2CC[C@H]21)C[C@@]1(CCCc2cc(Cl)ccc21)CO3 [AMG 397, (1S,3′R,6′R,7′R,8′E,11'S,12′R)-6-chloro-7′-methoxy-11′,12′-dinethyl-7′-((9aR)-octahydro-2H-pyrido[1,2-a]pyrazin-2-ylmethyl)-3,4-dihydro-2H,15′H-spiro[naphthalene-1,22′-[20]oxa[13]thia[1,14]diazatetracyclo [14.7.2.0^3,6.0^19,24]pentacosa[8,16,18,24]tetraen]-15′-one 13′,13′-dioxide]
Peak Area % (280 nm), AMG 397 peak RRT 1.00 ([1]; DCM, 2 Hrs, Amber): 99.49% | Peak Area % (280 nm), AMG 397 peak RRT 1.00 ([1]; DCM, 2 Hrs, Clear): 99.47% | Peak Area % (280 nm), AMG 397 peak RRT 1.00 ([1]; DCM, 4 Hrs, Amber): 99.44% | Peak Area % (280 nm), AMG 397 peak RRT 1.00 ([1]; DCM, 4 Hrs, Amber (second 4 Hrs column)): 99.52% | Peak Area % (280 nm), AMG 397 peak RRT 1.00 ([1]; DCM, 24 Hrs, Amber): 99.44% | Peak Area % (280 nm), AMG 397 peak RRT 1.00 ([1]; DCM, 24 Hrs, Clear): 99.48% | Peak Area % (280 nm), AMG 397 peak RRT 1.00 ([1]; DCM, 72 Hrs, Amber): 99.13% | Peak Area % (280 nm), AMG 397 peak RRT 1.00 ([1]; DCM, 72 Hrs, Clear): 98.78% | Peak Area % (280 nm), AMG 397 peak RRT 1.00 ([1]; DCM, Initial): 99.52% | Stability in DCM ([1]; DCM, up to 24 hours at room temperature): stable | Peak Area % (280 nm), AMG 397 peak RRT 1.00 ([1]; THF, 2 Hrs, Amber): 99.41% | Peak Area % (280 nm), AMG 397 peak RRT 1.00 ([1]; THF, 2 Hrs, Clear): 98.98% | Peak Area % (280 nm), AMG 397 peak RRT 1.00 ([1]; THF, 4 Hrs, Amber): 99.51% | Peak Area % (280 nm), AMG 397 peak RRT 1.00 ([1]; THF, 4 Hrs, Clear): 97.51% | Peak Area % (280 nm), AMG 397 peak RRT 1.00 ([1]; THF, 24 Hrs, Amber): 98.62% | Peak Area % (280 nm), AMG 397 peak RRT 1.00 ([1]; THF, 24 Hrs, Clear): 92.68% | Peak Area % (280 nm), AMG 397 peak RRT 1.00 ([1]; THF, 72 Hrs, Amber): 97.20% | Peak Area % (280 nm), AMG 397 peak RRT 1.00 ([1]; THF, 72 Hrs, Clear): 90.59% | Peak Area % (280 nm), AMG 397 peak RRT 1.00 ([1]; THF, Initial): 99.52% | Stability in THF ([1]; THF, presence of light accelerated degradation): unstable | solubility ([2]; Dichloromethane (DCM)): > 100000 µg/mL | solubility ([2]; Tetrahydrofuran (THF)): 33500 µg/mL (≈ 43800 µM) | solubility ([2]; acetone, organic solvent or mixture, read-out: Solubility): 370 µg/mL (≈ 483 µM) | solubility ([2]; ethanol, organic solvent or mixture, read-out: Solubility): 150 µg/mL (≈ 196 µM) | solubility ([2]; ethyl acetate, organic solvent or mixture, read-out: Solubility): 750 µg/mL (≈ 980 µM) | solubility ([2]; methanol, organic solvent or mixture, read-out: Solubility): 90 µg/mL (≈ 118 µM) | solubility at 24 h ([2]; organic solvent or mixture, thermodynamic from solid, THF, after 24 hours, extended stirring at room temperature, solid precipitated, read-out: Final solubility in THF): 33500 µg/mL (≈ 43800 µM) | solubility ([2]; organic solvent or mixture, thermodynamic from solid, THF, before extended stirring, read-out: Solubility in THF, initially): > 50000 µg/mL | solubility ([2]; organic solvent or mixture, DCM, concentrations achieved, read-out: Solubility in DCM): > 100000 µg/mL | Solubility in THF in the presence of water ([2]; various ratios of THF-water): drops significantly | solubility ([2]; water, read-out: Solubility): 7 µg/mL (≈ 9.14 µM)

— patent US12643913B2, “Mcl-1 inhibitor formulations” (AMGEN INC., priority 2020, dated 2026)
